Experimental data from the supplement of paper PMC11208160.

Experiment: recombinant barcode read abundance after kanamycin selection (control-corrected) (log10(CPM+1)); higher = more efficient recombination; sequences stand for … in AGTGCAGAGAAAATCGGCCAGTTTTCTCTGCCTGCAGTCCGCATGCCGT…AGATTTATGCAGCGGACTGCCTTTCTCCCAAAGTGATAAACCGGACAGTATCATGGACCGGTTTTCCCGGTAATCCGTATTTGCAAGGTTGGTTTCACT; site = the 11-nt target
Procedure, shortened: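 In E. coli, a pooled library matched targets to IS621 bridge RNA target-binding loops and was introduced alongside a donor plasmid. Cells went onto chloramphenicol/ampicillin/kanamycin with 0.1 mM IPTG or onto chloramphenicol/ampicillin LB agar as control, in duplicate. Recombination efficiency, from recombinant-junction barcodes as counts per million, is averaged and control-corrected. It is reported as log10(CPM+1).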
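Note: IS621 recombinase and bridge RNA in Escherichia coli cells.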

Row | Sequence | recombinant barcode read abundance (log10)
1 | GACAGGCCTTGGGTTCTAACCTGTTGCGT (site CTGCTAGCTCT) | 0.278
2 | GACAGGCCTTGGGTTCTAACCTGTTGCGT (site GACAGGCCTAC) | 1.31
3 | GACATACCTTGGGTTCTAACCTGTTGCCT (site GACATACCTAG) | 0.794
4 | GACATACCTTGGGTTCTAACCTGTTGCCT (site GACCTACCTAG) | 0.273
5 | GACATACCTTGGGTTCTAACCTGTTGCCT (site GACGTACCTAG) | 0.412
6 | GACATACCTTGGGTTCTAACCTGTTGCCT (site GACTTACCTAG) | 0.251
7 | GACATCGCTTGGGTTCTAACCTGTTGCCT (site GACATCACTAG) | 0.0851
8 | GACATCGCTTGGGTTCTAACCTGTTGCCT (site GACATCCCTAG) | 0.0326
9 | GACATCGCTTGGGTTCTAACCTGTTGCCT (site GACATCGCTAG) | 1.64
10 | GACATCGCTTGGGTTCTAACCTGTTGCCT (site GACATCTCTAG) | 0.641
11 | GACCACTCTTGGGTTCTAACCTGTTGCCT (site AACCACTCTAG) | 1.4
12 | GACCACTCTTGGGTTCTAACCTGTTGCCT (site CACCACTCTAG) | 1.2
13 | GACCACTCTTGGGTTCTAACCTGTTGCCT (site GACCACTCTAG) | 2.39
14 | GACCACTCTTGGGTTCTAACCTGTTGCCT (site TACCACTCTAG) | 1.42
15 | GACCAGCCTTGGGTTCTAACCTGTTGCAT (site GACCAGCCTAA) | 0.106
16 | GACCAGCCTTGGGTTCTAACCTGTTGCAT (site GACCAGCCTAC) | 0.74
17 | GACCAGCCTTGGGTTCTAACCTGTTGCAT (site GACCAGCCTAG) | 0.466
18 | GACCAGCCTTGGGTTCTAACCTGTTGCAT (site GACCAGCCTAT) | 1.82
19 | GACCAGCCTTGGGTTCTAACCTGTTGCGT (site GACCAGCCTAA) | 0.104
20 | GACCAGCCTTGGGTTCTAACCTGTTGCGT (site GACCAGCCTAC) | 2.4
21 | GACCAGCCTTGGGTTCTAACCTGTTGCGT (site GACCAGCCTAG) | 0.266
22 | GACCAGCCTTGGGTTCTAACCTGTTGCGT (site GACCAGCCTAT) | 1.32

Row | Sequence | recombinant barcode read abundance (log10)
23 | GACCAGCCTTGGGTTCTAACCTGTTGCTT (site GACCAGCCTAA) | 1.59
24 | GACCAGCCTTGGGTTCTAACCTGTTGCTT (site GACCAGCCTAC) | 0.994
25 | GACCAGCCTTGGGTTCTAACCTGTTGCTT (site GACCAGCCTAG) | 1.29
26 | GACCAGCCTTGGGTTCTAACCTGTTGCTT (site GACCAGCCTAT) | 0.746
27 | GACCCACCTTGGGTTCTAACCTGTTGCCT (site AACCCACCTAG) | 1.64
28 | GACCCACCTTGGGTTCTAACCTGTTGCCT (site CACCCACCTAG) | 0.814
29 | GACCCACCTTGGGTTCTAACCTGTTGCCT (site GACCCACCTAG) | 1.76
30 | GACCCACCTTGGGTTCTAACCTGTTGCCT (site TACCCACCTAG) | 1.4
31 | GACCCATCTTGGGTTCTAACCTGTTGCCT (site GACACAACTAG) | 0.0316
32 | GACCCATCTTGGGTTCTAACCTGTTGCCT (site GACCCATCTAG) | 0.683
33 | GACCGCGCTTGGGTTCTAACCTGTTGCCT (site GACCGAGCTAG) | 0.672
34 | GACCGCGCTTGGGTTCTAACCTGTTGCCT (site GACCGCGCTAG) | 1.05
35 | GACCGCGCTTGGGTTCTAACCTGTTGCCT (site GACCGGGCTAG) | 0.0432
36 | GACCGCGCTTGGGTTCTAACCTGTTGCCT (site GACCGTGCTAG) | 0.0542
37 | GACCGGACTTGGGTTCTAACCTGTTGCGT (site GACCGGACTAC) | 2.44
38 | GACCGGACTTGGGTTCTAACCTGTTGCGT (site GAGTGGACTAC) | 0.0356
39 | GACGAAGCTTGGGTTCTAACCTGTTGCCT (site GACGAAGCTAG) | 0.348
40 | GACGAAGCTTGGGTTCTAACCTGTTGCCT (site TCCGAAGCTAG) | 0.0613
41 | GACGATCCTTGGGTTCTAACCTGTTGCAT (site GACGATCCTAT) | 0.547
42 | GACGATCCTTGGGTTCTAACCTGTTGCAT (site GGCGAACCTAT) | 0.077
43 | GACGATCCTTGGGTTCTAACCTGTTGCCT (site GACGATCCTAG) | 0.66
44 | GACGATCCTTGGGTTCTAACCTGTTGCCT (site GCCGATCCTAG) | 0.0719

Row | Sequence | recombinant barcode read abundance (log10)
45 | GACGATCCTTGGGTTCTAACCTGTTGCCT (site GGCGATCCTAG) | 0.255
46 | GACGATCCTTGGGTTCTAACCTGTTGCCT (site GTCGATCCTAG) | 0.0852
47 | GACGCGGCTTGGGTTCTAACCTGTTGCCT (site GACGCGGCTAG) | 0.184
48 | GACGCGGCTTGGGTTCTAACCTGTTGCCT (site TTGCGAACTCT) | 0.059
49 | GACGGTCCTTGGGTTCTAACCTGTTGCGG (site GACGGTCCTCC) | 2.15
50 | GACGGTCCTTGGGTTCTAACCTGTTGCGG (site GATGGTCCTCC) | 0.418
51 | GACGTGTCTTGGGTTCTAACCTGTTGCCG (site GACGTGTCTCG) | 0.408
52 | GACGTGTCTTGGGTTCTAACCTGTTGCCG (site GGCGTGTCTCC) | 0.0409
53 | GACGTGTCTTGGGTTCTAACCTGTTGCGT (site AGTCATACTTG) | 0
54 | GACGTGTCTTGGGTTCTAACCTGTTGCGT (site GACGTGTCTAC) | 2.47
55 | GACTCATCTTGGGTTCTAACCTGTTGCGG (site GACTCATCTCC) | 0.151
56 | GACTCATCTTGGGTTCTAACCTGTTGCGG (site GACTTGTCTCC) | 0.11
57 | GACTCTCCTTGGGTTCTAACCTGTTGCTG (site GACTCTCCTCA) | 0.146
58 | GACTCTCCTTGGGTTCTAACCTGTTGCTG (site GACTCTCCTCT) | 0.0367
59 | GACTGAGCTTGGGTTCTAACCTGTTGCGT (site GACTGAGCTAC) | 2.58
60 | GACTGAGCTTGGGTTCTAACCTGTTGCGT (site GGCTGAGCTAG) | 0.236
61 | GACTGCCCTTGGGTTCTAACCTGTTGCGG (site GACTGCCCTCC) | 1.54
62 | GACTGCCCTTGGGTTCTAACCTGTTGCGG (site GGCGGCCCTCC) | 0.137
63 | GACTTACCTTGGGTTCTAACCTGTTGCAT (site GACTTACCTAT) | 1.18
64 | GACTTACCTTGGGTTCTAACCTGTTGCAT (site GACTTCCCTAT) | 0.216
65 | GACTTACCTTGGGTTCTAACCTGTTGCAT (site GACTTGCCTAT) | 0.135
66 | GACTTACCTTGGGTTCTAACCTGTTGCAT (site GACTTTCCTAT) | 0.124
